{"source": "patent US12478677B2", "about": "“Tunable luminescent organic salts for enhanced imaging and photodynamic therapy” (BOARD OF TRUSTEES OF MICHIGAN STATE UNIVERSITY, priority 2017, dated 2025)", "key": {"[1]": {"tested_on": "A549 cells", "experiment": "Viability studies (trypan blue staining and cell counting) with or without IR excitation", "type": "cell-based, human", "conditions": "for IC50: linear regression analysis; for Concentration at which cytotoxic: cells, toxic at low concentration, even without IR light", "description": "The cell lines human lung carcinoma (A549), metastatic human melanoma (WM1158) and Vemurafenib-resistant melanoma (Sk-Mel-28-Vem^R) are used. Sk-Mel-28-Vem^R is generated by culturing a parental melanoma cell lines in the presence of 2 μM Vemurafenib for 2 months. Acquired Vemurafenib resistance is defined by >1 log change in IC50 between nonresistant and resistant cell lines. Resistance is maintained through media supplementation with 2 μM Vemurafenib, which is changed every 48 hours. All cells are cultured in DMEM without pyruvate with 10% heat inactivated fetal bovine serum supplemented with glutamine and penicillin/streptomycin, and incubated in 37° C. with 5% CO2.\nA549 and WM1158 cells are seeded at a density of 50,000 cells per well in 6-well tissue culture plates. After 24 hours of incubation, media is aspirated and replaced with media containing luminescent dyes at indicated concentrations. Each well is irradiated with an 850 nm LED lamp with an illumination rate of 526 mW/cm^2 for an hour in the incubator, and control cells are left in a dark incubator without irradiation. For studies with Cy7, a 740 nm LED lamp is used instead of an 850 nm, but with a similar illumination flux. Immediately after irradiation, the media is replenished with fresh dye-laced media and allowed to incubate for another 24 hours. […] Viable cell number is determined at 24 and 96 hours using trypan blue staining and a Nexcelom Cellometer Auto T4 cell counter. All assays are done with 3 biological replicates. The fold change in cell proliferation over days of treatment was calculated using the following equation."}, "[2]": {"experiment": "Salt integrity and aggregation in cell media (mass spectrometry, electron microscopy, UV-Vis)", "type": "physicochemical", "conditions": "cell media", "excerpt": "FIGS. 7A-7C. […] Organic salts were first dissolved in DMSO and then diluted in water, forming nanoparticles. […] Combinations of H- and J-aggregation of organic salts can be seen by blue-shifted peaks (lower wavelength) and red-shifted peaks (higher wavelength), respectively. The nanoparticles with small hard anions redissolve in cell media likely due to sterics. […] This is achieved by cation-anion pairs of luminescent organic salts that can be modulated to be either non-toxic for enhanced imaging, or phototoxic for improved PDT. […] IR polymethine cyanine dyes, which have been used as effective theranostics are described. […] This is thought to occur through a mechanism mitigated by tumor vascularization, increased retention in cancer cells, and mitochondrial depolarization. Once in the cell, they accumulate in the mitochondria and lysosomes, where irradiation induces generation of cytotoxic oxygen species. A strategy is described for preventing or inhibiting salt dissociation in cells: aggregates are formed via introduction of the salt into an aqueous media by a solvent vehicle, forming particles with diameters of about 5 nm in size with no precipitation observed. […] This is confirmed by high resolution mass spectrometry, electron microscopy, and UV-Vis spectroscopy. […] Normalized absorption data are sown in FIGS. 7A, 7B, and 7C. This is likely due to steric effects, where if the counterion radius is too small it is not able to protect the nanoparticle stability. This can be characterized by the volume-averaged effective spherical radius of the counterions, where the cutoff is at about 0.275 nm."}, "[3]": {"tested_on": "mitochondrial superoxide", "experiment": "MitoSOX measurement of mitochondrial superoxide", "type": "cell-based, human", "conditions": "A549 cells treated 4 days at phototoxic concentrations; with or without light", "excerpt": "FIG. 22. Luminescent organic salts generate mitochondrial ROS. […] MitoSOX is used to measure mitochondrial superoxide, and H2DCFDA for general cytoplasmic ROS in A549 cell treated with organic salts at indicated phototoxic concentrations for 4 days.\nPhotoactive agents accumulate in the mitochondria of cancer cells and generate reactive oxygen species (ROS) with light exposure, depolarizing the mitochondrial membrane potential to cause cell death. Small molecule protective agents that quench ROS have been used to decrease their phototoxicity. However, the exact type of ROS generated by each luminescent agent remains unclear. Photo-induced ROS include singlet oxygen, superoxide radical anion, hydrogen peroxide, hydroxyl radical and others (see FIG. 21). Superoxide is a highly reactive and biologically toxic species deployed in nature to kill invading organisms. It is often formed as a byproduct of mitochondrial respiration but is typically quenched by the highly efficient superoxide dismutase. Hydroxyl radicals are also highly reactive, damaging nearly all forms of biological molecules. Unlike superoxide radical, the hydroxyl radical cannot be easily quenched naturally via enzymes, and endogenous antioxidants are typically required. Singlet oxygen is the excited state of the common triplet oxygen (O2 ground state) and is highly reactive towards organic compounds. Singlet oxygen can be eliminated in mammalian systems by antioxidants. A range of nitroxy radicals can subsequently stem from superoxide (peroxynitrite) or peroxide (nitrogen dioxide) species. […] Each luminescent cation-anion pair generates specific ROS resonant with its own energy level, and cell types can be targeted by generating the key sensitizing ROS. For example, it is expected that CyFPhB is phototoxic (see FIGS. 11A and 11B and 12A and 12B) by generating reactive oxygen species, which can be resonant with its molecular orbital energy levels (FIG. 21). […] No cytoplasmic ROS is detected using general cytoplasmic ROS probe H2DCFDA. […]"}, "[4]": {"experiment": "In vivo imaging, organ and tumor localization in orthotopic breast cancer mouse model", "conditions": "1 mg/kg intraperitoneal, after 72 hours", "description": "Mice are dosed with 1 mg/kg of organic salt in PBS (phosphate buffered saline) via intraperitoneal injection. Live imaging is performed by anesthetizing the mice with 3% isofluorane and using a Leica M165FC microscope with a PE4000 LED light source, DFC9000GT camera, and LAS X imaging software. For internal imaging, mice are sacrificed once tumors reach a size of 20 mm^3 and organs of interest are retrieved and imaged using the system described previously."}}, "note": "Entries after “also recorded” stand apart in the source; their conditions may differ. Where two headings read alike, the source gives them in different places."}
{"smiles": "CCN1C(=CC=C2CCCC(C=CC3=[N+](CC)c4ccc5ccccc5c4C3(C)C)=C2Cl)C(C)(C)c2c1ccc1ccccc21.F[P-](F)(F)(F)(F)F", "note": "[CyPF6]", "values": [{"measurement": "IC50", "setting": "[1]; A549 cells, 850 nm irradiation, read-out: IC50 850 nm", "value": 890, "unit": "nM"}, {"measurement": "IC50", "setting": "[1]; A549 cells, dark, no irradiation, read-out: IC50 Dark", "value": 1600, "unit": "nM"}, {"measurement": "Toxicity in words, dark and light", "setting": "[1]; A549 cells, with or without IR (850 nm) excitation", "value": "toxic both in the dark and under IR (850 nm) illumination; also recorded: cytotoxic"}, {"measurement": "Toxicity in the dark, in words", "setting": "[1]; A549 cells, without IR excitation", "value": "cytotoxic"}, {"measurement": "Concentration at which cytotoxic", "setting": "[1]", "value": "< 2500", "unit": "nM"}, {"measurement": "Concentration at which cytotoxic", "setting": "[1]; listed as Cy+ paired with PF6^−", "value": 1600, "unit": "nM"}, {"measurement": "Aggregation / nanoparticle behaviour in cell media, in words", "setting": "[2]", "value": "lack of aggregation observed in cell media"}, {"measurement": "Mitochondrial superoxide / ROS generation (MitoSOX), in words", "setting": "[3]", "value": "catalyzing superoxide with or without light"}, {"measurement": "Localization in tumor versus other organs", "setting": "[4]", "value": "concentration of the organic salt to the tumor"}]}
